Experimental data reported in a melting point compilation (Tetko et al.; mined from patent text by program, amines drawn as free bases though some values may be those of a salt).

**Q.** For `CCCCCCCCCCCCCCCCCC(=O)OC1CCN(O)CC1`, which melting point is on record?
**A.** 75 to 80 °C

**Q.** For `Cc1nnc2n1-c1ccc(C#CCn3c(C)nc4ccccc4c3=O)cc1C(c1ccccc1F)=NC2`, which melting point is on record?
**A.** 241 to 244 °C

**Q.** Which melting point does the source give for `COc1cc(CBr)cc2c(Br)ccc(OC(C)C)c12` here?
**A.** 126 °C

**Q.** For `COc1cc(/C(C#N)=C/c2ccc(Cl)c([N+](=O)[O-])c2)cc(OC)c1OC`, which melting point is on record?
**A.** 198 to 199 °C

**Q.** With `COC(=O)c1cc2cc(S(N)(=O)=O)sc2s1` as the compound, how does the melting point read?
**A.** 219 to 220 °C

**Q.** For `O=C([C@@H]1CCCN1C(=O)CC1CCc2ccccc2C1)N1CCCC1` (stereo partly specified), which melting point is on record?
**A.** 104 to 106 °C

**Q.** Which melting point does the source give for `CCOC(=O)C=C(c1ccccc1)c1cc([N+](=O)[O-])ccc1NS(=O)(=O)c1ccc(OC)cc1` here?
**A.** 126 to 129 °C

**Q.** For `CN(C(=O)c1cnn(C)c1C(=O)Nc1ccn2nc(N3CCOCC3)nc2c1)C1CCCC1`, which melting point is on record?
**A.** 222 to 224 °C

**Q.** Which melting point does the source give for `COc1nc2c(O)cccc2n1C` here?
**A.** 226 to 229 °C

**Q.** For `NCCCCCCc1ccc(C2=NNC(=O)CC2)cc1`, which melting point is on record?
**A.** 153 to 154 °C

**Q.** Which melting point does the source give for `Fc1cc2c(cc1F)CC(n1c(-c3nnn[nH]3)c[nH]c1=S)CC2` (stereo unspecified) here?
**A.** 195 to 212 °C

**Q.** For `Cc1onc(OC2CN3CCC2CC3)c1Cl` (stereo unspecified), which melting point is on record?
**A.** 37 to 38 °C

**Q.** Which melting point does the source give for `O=C1NC2(NC1=O)Oc1ccccc1O2` here?
**A.** 202 °C

**Q.** With `COC(=O)C(=CN(C)C)N(C)c1nc(-c2ccc(Cl)cc2)cs1` as the compound, how does the melting point read?
**A.** 177 to 178 °C

**Q.** For `NC(=O)C(O)C1CC=CCC1` (stereo unspecified), which melting point is on record?
**A.** 139 to 141 °C

**Q.** Which melting point does the source give for `CCc1ccccc1NC=C1C(=O)N(c2ccc(N(S(C)(=O)=O)S(C)(=O)=O)cc2)N=C1C` here?
**A.** 268 °C

**Q.** With `COC(=S)c1sc(C)c(N)c1N` as the compound, how does the melting point read?
**A.** 95 to 97 °C

**Q.** With `CCCCCNC(=O)Nc1ccccc1C(=O)NCC1CCN(C(c2ccccc2)c2ccccc2)CC1` as the compound, how does the melting point read?
**A.** 178 to 180 °C

**Q.** For `COc1cc2c(cc1OC)CN(c1cc(Cl)ncn1)CC2`, which melting point is on record?
**A.** 88 to 89 °C

**Q.** For `Cc1cccc(-n2nc(C)c(C)c2-c2cc3cnccc3s2)n1`, which melting point is on record?
**A.** 108 to 109 °C

**Q.** Which melting point does the source give for `COC(=O)c1cc(/C=C/C(=O)O)ccc1Cl` here?
**A.** 194 °C

**Q.** With `O=C1C=CC(O)(c2cnc3ccccc3c2)C=C1` as the compound, how does the melting point read?
**A.** 183 to 184 °C

**Q.** For `COc1cc(Cl)cc(Cl)c1C1=NC(C)(C)CO1`, which melting point is on record?
**A.** 45 °C

**Q.** Which melting point does the source give for `COC(=O)C1CCCCc2c1ncn2C(c1ccccc1)(c1ccccc1)c1ccccc1` (stereo unspecified) here?
**A.** 161 to 163 °C

**Q.** Which melting point does the source give for `NNc1cc2c(nn1)CCN(C(=O)c1ccc(Br)cc1)C2` here?
**A.** 192 to 195 °C

**Q.** With `O=C(O)C(=O)c1ccc(OCCOc2ccc3ccncc3c2)cc1` as the compound, how does the melting point read?
**A.** 260 °C

**Q.** Which melting point does the source give for `CC(C)(C)OC(=O)N1CC(CO)c2c1cc(OCc1ccccc1)c1ncccc21` (stereo unspecified) here?
**A.** 170 to 171 °C

**Q.** Which melting point does the source give for `O=C(Nc1nc(C(Cl)(Cl)Cl)ns1)c1cc([N+](=O)[O-])cc([N+](=O)[O-])c1` here?
**A.** 197 °C

**Q.** For `CCc1sc(N2C(=O)c3ccccc3C2=O)c(C(=O)c2ccc(Cl)cc2)c1C`, which melting point is on record?
**A.** 115 to 117 °C

**Q.** For `Brc1ccc2cc(Nc3ccccc3)ccc2c1`, which melting point is on record?
**A.** 126 to 128 °C

**Q.** With `Brc1cn2c(Br)cnc2c(N2CCCCC2)n1` as the compound, how does the melting point read?
**A.** 72 °C

**Q.** Which melting point does the source give for `C#CCN(C(=O)c1cnccc1C(F)(F)F)S(=O)(=O)c1cccc(C)c1` here?
**A.** 111 to 114 °C

**Q.** For `CCOC(=O)c1nc(NC(C)=O)sc1Cc1ccc(SCC)cc1`, which melting point is on record?
**A.** 190 °C

**Q.** With `CCOP(=O)(OCC)C(F)c1ccc(NC(=O)CCc2oc(-n3cnc4ccccc43)nc2-c2ccc(Cl)cc2)cc1` (stereo unspecified) as the compound, how does the melting point read?
**A.** 152 to 155 °C

**Q.** Which melting point does the source give for `C=CC(=O)Nc1ccc2ncnc(Nc3ccc(Oc4ccccc4)cc3)c2c1` here?
**A.** 185 to 191 °C

**Q.** For `CC(C)(C)OC(=O)N1c2ncc(Br)cc2C=CC1N` (stereo unspecified), which melting point is on record?
**A.** > 230 °C

**Q.** For `CCCCSc1ccc(C(=O)O)nc1`, which melting point is on record?
**A.** 100 to 102 °C

**Q.** For `CN(C)C(=O)N[C@H]1CC[C@H](CCN2CCC(c3cccc4c3CCO4)CC2)CC1`, which melting point is on record?
**A.** 260 °C

**Q.** For `Clc1cccc(C(Cl)Cl)n1`, which melting point is on record?
**A.** 48 to 52 °C

**Q.** Which melting point does the source give for `COc1ccc2nc(OC)cc(CCNC(C)=O)c2c1` here?
**A.** 119 to 121 °C

**Q.** With `O=C(NC1CC1)c1nc(-c2ccccc2)c(-c2ccc(=O)n(Cc3ccccc3)n2)s1` as the compound, how does the melting point read?
**A.** 151 to 152 °C

**Q.** With `CCC1CC(NC(C)=O)=NN1c1cccc(Cl)n1` (stereo unspecified) as the compound, how does the melting point read?
**A.** 170 to 171 °C

**Q.** With `CN(C)c1ccn2nc(S(=O)(=O)Nc3c(Cl)cccc3Cl)nc2n1` as the compound, how does the melting point read?
**A.** > 310 °C

**Q.** With `CCCCCCCCCCc1c(C(=O)O)sc2c1sc1c3sc(C(=O)O)c(CCCCCCCCCC)c3sc21` as the compound, how does the melting point read?
**A.** 316 to 318 °C

**Q.** Which melting point does the source give for `O=C(O)c1c(Cl)nc(-c2ccccc2)c2ccccc12` here?
**A.** 208 °C

**Q.** For `O=C(OCC(Cl)(Cl)Cl)c1ncn2c1CN=C(c1ccccc1)c1cc(Br)ccc1-2`, which melting point is on record?
**A.** 113 to 116 °C

**Q.** For `CCCCCCCOc1ccc2c(c1)N(CCCN1CCC(CCO)CC1)c1cccc(S(=O)(=O)N(C)C)c1S2`, which melting point is on record?
**A.** 80 °C

**Q.** With `Cc1ccc(C(=O)OC2CCN(Cc3cccc([N+](=O)[O-])c3)CC2)cc1` as the compound, how does the melting point read?
**A.** 90 to 93 °C

**Q.** With `O=C(N[C@H](Cc1ccc(C(F)(F)F)cc1)[C@@H](O)c1cccc2ccccc12)C1CCCCC1` (racemic) as the compound, how does the melting point read?
**A.** 156 to 157 °C

**Q.** For `NNc1cc(-c2ccnc(Nc3cccc(Cl)c3)n2)ccn1`, which melting point is on record?
**A.** 201 to 203 °C

**Q.** For `CCCCCCCCCCNc1c(Nc2ccc(CCCNC[C@H](O)COc3cccc4[nH]c5ccccc5c34)cc2)c(=O)c1=O`, which melting point is on record?
**A.** 225 °C
